# Measured values taken from publication PMC12349723, “Computationally accelerated identification of P-glycoprotein inhibitors” (PLOS One, 2025).
# Where “and” joins values, the source holds several entries; their conditions need not be identical. Equal entries are not always repeated. Where two headings read alike, the source gives them in different places.
# Columns and labels:
# [1] = test system: A2780 cells; assay: MTT viability assay, parental A2780 cells, with or without PTX; assay type: cell-based, human; conditions: for Mean % Survival / % Survival (individual sample): A2780 cells; for % Survival (individual sample): single samples
# Protocol: (§1) The chemotherapeutic sensitive DU145 human prostate cancer cells and the multidrug resistant sub-line, DU145-TXR, were generous gifts from Dr. Evan Keller (University of Michigan, Ann Arbor, MI). The MDR, P-gp overexpressing DU145-TXR cells were maintained under positive selection pressure by supplementing complete medium with 10 nM paclitaxel (Acros Organics, NJ). In addition to the aforementioned cell lines, the chemotherapeutic sensitive A2780 ovarian cancer cells (93112519, Sigma) and the multidrug resistant A2780-ADR (93112520, Sigma) were maintained in complete RPMI media consisting of RPMI-1640 with L-glutamine, 10% fetal bovine serum (FBS; Corning), 100 U/mL penicillin and 100 μg/mL streptomycin in a humidified incubator at 37 °C and 5% CO2. The MDR, P-gp overexpressing A2780-ADR cell line was maintained under positive selection pressure by supplementing complete medium with 100 nM doxorubicin (Fisher Scientific, NJ). The non-cancerous HFL1 (human lung fibroblast) cell line cell line was a generous gift from Dr. Robert Harrod (Southern Methodist University, Dallas, TX) and was maintained in complete F12K media consisting of F12K with 10% fetal bovine serum, 100 U/mL penicillin, and 100 µg/mL streptomycin (Gibco). Flasks and 96 well plates that were used with the non-cancerous line HFL1 were pre-treated with 0.1 mg/ml Collagen Type 1 (Gibco) and rinsed with PBS (Fisher).
# (§2) Culture of the DU145, DU145-TXR, and HFL1 cell lines was performed as described in [8]. Culture of the A2780 and A2780-ADR cell lines was performed as described in [9]. MTT assays were performed as described in [8] with minor modifications. LC-MS/MS accumulation assays were performed as described in {Nanayakkara, 2018 #173} [9] with some modifications. […] The inhibitor concentration was lowered to 15 µM here, as the goal of the study was to identify compounds that were effective in reversing MDR at low concentrations, and to determine if the expanded virtual-assisted methods improved on our first-draft attempt. Compounds 56–98 were pre-screened using Resazurin cell viability assays: cells were incubated with 15 µM compound with or without 500 nM PTX for 48 hours, after which cell survival was assessed similar to [39]. Data represent the mean of two separate experiments, with n = 3 samples per experiment (n = 6 total) (S4 Table). The top performing compounds from this initial screen were re-tested with MTT viability assays against DU145-TXR cells, as described below.
# (§3) MTT assays measure the reduction of yellow, water soluble 3-(4,5-dimethylthiazol-2-yl)-2,5-diphenyltetrazolium bromide (MTT) to blue, insoluble formazan crystals by cellular reductase processes in living cells. Cells were trypsinized from monolayers and seeded in complete medium in 96 well plates. Cancerous cell lines (DU145, DU145-TXR, A2780, A2780-ADR) were seeded at 3,000 cells per well in complete RPMI medium. The non-cancerous HFL1 line was seeded at 4,000 cells per well in complete F12K medium, in collagen-treated plates (Collagen Type 1, Gibco). Cells were incubated with experimental compounds for 48 hours at 37 °C and 5% CO2 in a humidified incubator. At 48 hours, MTT was added (20 µL/well of 5 mg/mL MTT in PBS) to each well. After incubation for 4 hours, the media was removed, and the formazan crystals were dissolved in 100 µL DMSO per well. Plates containing the semi-adherent A2780 or A2780-ADR lines were spun at 1400 rpm for 3 minutes prior to aspiration of media, and the addition of DMSO. Plates were shaken for 10 minutes at 500 rpm on an Orbital shaker (LabDoctor from MidSci, St Louis, MO). The absorbance was measured at 570 nm using a Bio-Tek Cytation 5 (Bio-Tek, Winooski, VT). The measured absorbance value was correlated with the number of metabolically active cells in that well, corrected for absorbance of media. […]
# [2] = test system: DU145-TXR cells; assay: MTT viability assay, reversal of MDR (re-sensitization to paclitaxel) in P-gp overexpressing DU145-TXR cells; assay type: cell-based, human; conditions: for % Survival, mean / % Survival / viability at 15 µM: DU145-TXR; for viability at 15 µM: Homo sapiens; for Re-sensitization of DU145-TXR cells to PTX (reversal of MDR): 15 µM compound with or without 500 nM PTX, 48 h, MTT, re-sensitization = 30% or greater decrease in cell viability
# Protocol: as §1, §2, §3
# [3] = molecular target: T1, P-gp (Homo sapiens, UniProt P08183); assay: Top Hit classification from combined in vitro criteria; conditions: reverse MDR, do not increase PTX toxicity in chemo-sensitive cancer cells, non-toxic to noncancerous cells, not P-gp substrates
# T1 construct: The MDR, P-gp overexpressing DU145-TXR cells were maintained under positive selection pressure; endogenous in cells; host or cells: DU145-TXR (paclitaxel-resistant sub-line of DU145 human prostate cancer cells)
# [4] = SWISS-ADME computational analysis of chemical properties; conditions: predicted aqueous solubility compared to that observed in the laboratory
# Source text: Identifying P-gp inhibitors that are not transport substrates remains inherently challenging. To that end, computational tools such as the SWISS-ADME server attempt to use a molecule’s unique chemical and structural characteristics to predict whether it is likely to be a P-gp transport substrate. Our LC-MS/MS assays allowed us to retroactively test the validity of predictions from SWISS-ADME. […] Alternative identifiers for the molecules identified in this study are shown in S7 Table.
# S1 Table. Known P-gp Inhibitors and Predicted Chemical Properties. A non-exhaustive list of known P-gp inhibitors and their selected chemical properties ^[64, 65]. Clinical trial outcomes were adapted from ^[10, 11]. Compounds were evaluated using the SWISS-ADME server ^[54]. […] “Predicted P-gp Substrate” - predicted by SWISS-ADME to be a transport substrate of P-gp. “Known P-gp Substrate” – In addition to being P-gp inhibitors, these molecules are: known transport substrates of P-gp, known non-transport substrates of P-gp, unknown whether it is a transport substrate of P-gp ^[66-68]. If the molecule is designated in a specific generation of P-gp inhibitors - First Generation P-gp inhibitors, Second generation P-gp inhibitors, Third generation P-gp inhibitors.
# [5] = 1 µM compound + 500 nM PTX, mean of 12 samples
# [6] = 15 µM compound + 500 nM PTX (Paclitaxel, Taxol), mean of 8 samples
# [7] = 15 µM compound + 500 nM PTX (Paclitaxel, Taxol), trial 1, sample 1
# [8] = 15 µM compound + 500 nM PTX (Paclitaxel, Taxol), trial 1, sample 2
# [9] = 15 µM compound + 500 nM PTX (Paclitaxel, Taxol), trial 1, sample 3
# [10] = 15 µM compound + 500 nM PTX (Paclitaxel, Taxol), trial 1, sample 4
# [11] = 15 µM compound + 500 nM PTX (Paclitaxel, Taxol), trial 2, sample 1
# [12] = 15 µM compound + 500 nM PTX (Paclitaxel, Taxol), trial 2, sample 2
# [13] = 15 µM compound + 500 nM PTX (Paclitaxel, Taxol), trial 2, sample 3
# [14] = 15 µM compound + 500 nM PTX (Paclitaxel, Taxol), trial 2, sample 4
# [15] = 15 µM Compound Alone, mean of 8 samples, read-out: % Survival, mean
# [16] = 15 µM Compound Alone, trial 1, sample 1, read-out: % Survival
# [17] = 15 µM Compound Alone, trial 1, sample 2, read-out: % Survival
# [18] = 15 µM Compound Alone, trial 1, sample 3, read-out: % Survival
# [19] = 15 µM Compound Alone, trial 1, sample 4, read-out: % Survival
# [20] = 15 µM Compound Alone, trial 2, sample 1, read-out: % Survival
# [21] = 15 µM Compound Alone, trial 2, sample 2, read-out: % Survival
# [22] = 15 µM Compound Alone, trial 2, sample 3, read-out: % Survival
# [23] = 15 µM Compound Alone, trial 2, sample 4, read-out: % Survival
# [24] = 15 µM compound + 500 nM PTX, mean of 8 or 12 samples
# [25] = Homo sapiens, A2780, A2780 cells, 15 µM compound alone, mean of 8 or 12 samples, read-out: Mean % Survival
# T1 sequence (P08183 whole entry): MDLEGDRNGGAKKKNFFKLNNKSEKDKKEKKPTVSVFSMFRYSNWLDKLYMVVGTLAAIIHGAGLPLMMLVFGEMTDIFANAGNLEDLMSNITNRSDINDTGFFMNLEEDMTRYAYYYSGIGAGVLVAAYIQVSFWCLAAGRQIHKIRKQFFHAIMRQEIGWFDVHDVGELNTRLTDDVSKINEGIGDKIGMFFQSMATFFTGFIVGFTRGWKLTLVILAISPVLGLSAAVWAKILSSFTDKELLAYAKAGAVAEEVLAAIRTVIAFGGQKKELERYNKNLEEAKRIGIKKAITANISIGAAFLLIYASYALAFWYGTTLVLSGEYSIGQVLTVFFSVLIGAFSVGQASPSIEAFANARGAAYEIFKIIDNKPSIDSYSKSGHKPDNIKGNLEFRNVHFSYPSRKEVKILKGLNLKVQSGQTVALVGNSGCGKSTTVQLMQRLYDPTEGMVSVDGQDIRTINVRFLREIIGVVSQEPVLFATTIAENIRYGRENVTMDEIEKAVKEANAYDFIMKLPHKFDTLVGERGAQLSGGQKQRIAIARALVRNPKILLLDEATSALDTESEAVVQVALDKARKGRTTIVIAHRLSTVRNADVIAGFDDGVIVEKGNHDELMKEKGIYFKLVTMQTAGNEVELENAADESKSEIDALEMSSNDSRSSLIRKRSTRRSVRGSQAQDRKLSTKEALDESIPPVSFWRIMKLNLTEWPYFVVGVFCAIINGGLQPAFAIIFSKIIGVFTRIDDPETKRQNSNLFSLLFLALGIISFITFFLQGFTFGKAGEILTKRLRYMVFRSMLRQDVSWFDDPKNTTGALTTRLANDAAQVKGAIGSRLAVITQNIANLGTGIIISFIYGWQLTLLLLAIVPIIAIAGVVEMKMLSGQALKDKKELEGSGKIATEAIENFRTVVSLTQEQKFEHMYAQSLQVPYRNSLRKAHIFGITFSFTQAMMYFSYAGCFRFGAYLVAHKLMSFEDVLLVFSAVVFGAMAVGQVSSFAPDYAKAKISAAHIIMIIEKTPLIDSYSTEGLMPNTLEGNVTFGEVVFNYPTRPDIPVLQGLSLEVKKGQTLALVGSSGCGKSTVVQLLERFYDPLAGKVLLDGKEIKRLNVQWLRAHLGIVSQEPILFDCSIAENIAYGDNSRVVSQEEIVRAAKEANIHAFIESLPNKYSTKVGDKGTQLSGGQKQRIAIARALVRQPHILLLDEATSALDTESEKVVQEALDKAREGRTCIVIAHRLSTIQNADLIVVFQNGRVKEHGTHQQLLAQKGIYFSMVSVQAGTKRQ
Compound,"Mean % Survival [1, 5] [%]","% Survival, mean [2, 6] [%]","% Survival [2, 7] [%]","% Survival [2, 8] [%]","% Survival [2, 9] [%]","% Survival [2, 10] [%]","% Survival [2, 11] [%]","% Survival [2, 12] [%]","% Survival [2, 13] [%]","% Survival [2, 14] [%]","viability at 15 µM [2, 15] [%]","viability at 15 µM [2, 16] [%]","viability at 15 µM [2, 17] [%]","viability at 15 µM [2, 18] [%]","viability at 15 µM [2, 19] [%]","viability at 15 µM [2, 20] [%]","viability at 15 µM [2, 21] [%]","viability at 15 µM [2, 22] [%]","viability at 15 µM [2, 23] [%]","Mean % Survival [1, 24] [%]",other results
"COc1ccc2c3c([nH]c2c1)[C@H](CC(C)C)N1C(=O)[C@H](CCC(=O)OC(C)(C)C)NC(=O)[C@@H]1C3 [Ko143, reference compound]",12.8,72.4,75,82,91,77,65,67,58,64,–,–,–,–,–,–,–,–,–,–,"% Survival (individual sample) ([1]; 1 µM compound + 500 nM PTX): 16% and 15% and 9% and 49% and 7% and 8% and 10%; % Survival (individual sample) ([1]; 1 µM compound alone): 88% and 85% and 84% and 87% and 89% and 40% and 99% and 90% and 97% and 92%; Mean % Survival ([1]; mean of 12 samples): 85.3%; % Survival, mean ([2]; 15 µM Compound Alone, mean of 8 samples): 89.2%; % Survival ([2]; 15 µM Compound Alone, trial 1, sample 1): 101%; % Survival ([2]; 15 µM Compound Alone, trial 1, sample 2): 113%; % Survival ([2]; 15 µM Compound Alone, trial 1, sample 3): 88%; % Survival ([2]; 15 µM Compound Alone, trial 1, sample 4): 91%; % Survival ([2]; 15 µM Compound Alone, trial 2, sample 1): 92%; % Survival ([2]; 15 µM Compound Alone, trial 2, sample 2): 74%; % Survival ([2]; 15 µM Compound Alone, trial 2, sample 3): 75%; % Survival ([2]; 15 µM Compound Alone, trial 2, sample 4): 80%"
"COc1cc2c(cc1OC)CN(CCc1ccc(NC(=O)c3cc(OC)c(OC)cc3NC(=O)c3cnc4ccccc4c3)cc1)CC2 [Tariquidar, reference compound]",17.8,13.1,11,10,21,13,20,13,9,7.57,101,139,94,96,95,80,106,79,123,–,"% Survival (individual sample) ([1]; 1 µM compound + 500 nM PTX, listed as TQR): 12%; viability at 1 µM ([1]; Homo sapiens, A2780, A2780 cells, 1 µM compound alone, mean of 12 samples, read-out: Mean % Survival): 106%"
"NS(=O)(=O)c1cccc(NC(=O)CSc2nnnn2C2CC2)c1 [Compound 89, NS(=O)(=O)c1cccc(NC(=O)CSc2nnnn2C2CC2)c1]",–,97.9,108,120,99,113,85,83,88,87,105,115,120,122,116,103,92,95,79,10.3,"% Survival (individual sample) ([1]; 15 µM compound + 500 nM PTX): 8% and 12%; % Survival (individual sample) ([1]; 15 µM compound alone): 96%; viability at 15 µM [1, 25]: 87.9%; Top Hit [3]: No; Re-sensitization of DU145-TXR cells to PTX (reversal of MDR) [2]: did not reverse MDR in DU145-TXR cells; Correct Water Solubility Prediction? [4]: Yes"
"Cn1cnnc1SCc1c(C(=O)O)nnn1-c1nonc1N [Compound 59, Cn1cnnc1SCc1c(nnn1-c1nonc1N)C(O)=O]",–,114.8,116,115,139,150,95,97,95,111,107,132,105,116,103,103,102,99,99,11.4,"% Survival (individual sample) ([1]; 15 µM compound + 500 nM PTX): 6% and 9%; viability at 15 µM [1, 25]: 99%; Top Hit [3]: No; Re-sensitization of DU145-TXR cells to PTX (reversal of MDR) [2]: did not reverse MDR in DU145-TXR cells; Correct Water Solubility Prediction? [4]: Yes"
